Experimental data published in the NIST ThermoML archive (doi:10.1021/je300827f).

Assay: xn = mol fraction of the nth substance listed
Conditions: 101 kPa, Liquid; for viscosity: Capillary tube (Ostwald / Ubbelohde) method; for mass density: Vibrating tube method

CCCCCC(C)O (configuration not stated) [2-heptanol] + OCCOCCO
Conditions	mass density, 298.15 K [kg/m3]	mass density, 303.15 K [kg/m3]	mass density, 308.15 K [kg/m3]	mass density, 313.15 K [kg/m3]	viscosity, 298.15 K [mPa·s]	viscosity, 303.15 K [mPa·s]	viscosity, 308.15 K [mPa·s]	viscosity, 313.15 K [mPa·s]
x2 = 0	813.2	809.3	805	801.1	5.02	4.15	3.48	2.85
x2 = 0.0807	829.4	825.2	820.9	817	5.22	4.45	3.98	3.04
x2 = 0.1596	846.1	841.8	837.5	833.5	5.27	4.66	4.23	3.21
x2 = 0.2397	864.1	859.8	855.3	851.2	5.38	4.89	4.39	3.42
x2 = 0.3501	890.9	886.5	881.9	877.7	5.94	5.44	4.7	3.87
x2 = 0.4398	914.4	910.1	905.3	901.2	6.95	6.21	5.2	4.45
x2 = 0.5602	948.9	944.5	939.8	935.5	9.32	7.87	6.43	5.64
x2 = 0.6501	977.1	972.8	968.2	963.9	11.89	9.69	7.84	6.89
x2 = 0.7402	1007.7	1003.6	999.1	994.9	15.13	12.04	9.71	8.46
x2 = 0.8501	1048.8	1044.9	1040.6	1036.6	19.86	15.65	12.54	10.82
x2 = 0.9397	1085.7	1082.1	1078.4	1074.6	24.15	19.2	15.27	13.1

CCCCC(C)O (configuration not stated) [2-hexanol] + OCCOCCO
Conditions	mass density, 298.15 K [kg/m3]	mass density, 303.15 K [kg/m3]	mass density, 308.15 K [kg/m3]	mass density, 313.15 K [kg/m3]	viscosity, 298.15 K [mPa·s]	viscosity, 303.15 K [mPa·s]	viscosity, 308.15 K [mPa·s]	viscosity, 313.15 K [mPa·s]
x2 = 0	810.1	806.1	802.1	798	4.1	3.41	2.82	2.22
x2 = 0.0809	828.8	824.7	820.3	816.1	4.24	3.93	3.13	2.26
x2 = 0.1597	847.7	843.5	839.1	834.7	4.39	4.19	3.38	2.47
x2 = 0.2398	867.8	863.5	858.9	854.4	4.71	4.43	3.66	2.85
x2 = 0.3501	896.9	892.5	887.8	883.1	5.69	5.03	4.24	3.63
x2 = 0.4398	921.9	917.6	912.7	908.2	7.07	5.96	4.99	4.5
x2 = 0.5602	957.6	953.2	948.4	943.7	9.89	8	6.49	5.99
x2 = 0.6501	985.9	981.6	976.9	972.3	12.69	10.16	8.04	7.37
x2 = 0.7403	1015.9	1011.7	1007.2	1002.7	16.04	12.83	9.96	8.96
x2 = 0.8502	1054.8	1050.9	1046.6	1042.5	20.63	16.56	12.76	11.2
x2 = 0.9398	1088.6	1084.9	1081.1	1077.5	24.55	19.77	15.38	13.28

CCC(C)O (configuration not stated) [butan-2-ol] + OCCOCCO
x2 = 0
Conditions	mass density [kg/m3]	viscosity [mPa·s]
298.15 K	802.7	3.1
303.15 K	798.3	2.6
308.15 K	793.6	2.15
313.15 K	789.1	1.73

OCCOCCO [diethylene glycol] + CC(C)O
Conditions	mass density, 298.15 K [kg/m3]	mass density, 303.15 K [kg/m3]	mass density, 308.15 K [kg/m3]	mass density, 313.15 K [kg/m3]	viscosity, 298.15 K [mPa·s]	viscosity, 303.15 K [mPa·s]	viscosity, 308.15 K [mPa·s]	viscosity, 313.15 K [mPa·s]
x1 = 0.0808	814.9	810.2	805.2	800.5	2.71	2.54	2.22	1.9
x1 = 0.1599	846.9	841.8	836.5	831.7	3.59	3.38	2.89	2.52
x1 = 0.2398	877.8	872.4	867	862	4.73	4.35	3.63	3.25
x1 = 0.3501	918.3	912.7	907.3	902.2	6.67	5.93	4.83	4.41
x1 = 0.4399	949.6	943.9	938.5	933.4	8.59	7.44	6	5.49
x1 = 0.5596	988.8	983.3	978.1	973.1	11.59	9.8	7.84	7.09
x1 = 0.6499	1016.8	1011.5	1006.4	1001.4	14.2	11.84	9.47	8.44
x1 = 0.7396	1043.2	1038.2	1033.4	1028.8	17.08	14.1	11.27	9.89
x1 = 0.8501	1073.9	1069.5	1065.2	1061.1	21.04	17.19	13.7	11.84
x1 = 0.9402	1097.4	1093.8	1089.8	1086.2	24.61	19.94	15.82	13.58
x1 = 1	1112.4	1109.1	1105.6	1102.3	27.15	21.87	17.26	14.81

OCCOCCO [diethylene glycol] + CCC(C)O
Conditions	mass density, 298.15 K [kg/m3]	mass density, 303.15 K [kg/m3]	mass density, 308.15 K [kg/m3]	mass density, 313.15 K [kg/m3]	viscosity, 298.15 K [mPa·s]	viscosity, 303.15 K [mPa·s]	viscosity, 308.15 K [mPa·s]	viscosity, 313.15 K [mPa·s]
x1 = 0.0808	829.4	824.8	819.9	815.3	3.69	–	–	–
x1 = 0.0833	–	–	–	–	–	3.1	2.65	2.22
x1 = 0.1598	855.3	850.5	845.5	840.7	4.42	–	–	–
x1 = 0.161	–	–	–	–	–	3.69	3.17	2.74
x1 = 0.2398	881.3	876.3	871.2	866.3	5.33	–	–	–
x1 = 0.2402	–	–	–	–	–	4.41	3.77	3.31
x1 = 0.3494	916.4	911.3	906.2	901.2	6.94	–	–	–
x1 = 0.3498	–	–	–	–	–	5.69	4.77	4.25
x1 = 0.4399	944.9	939.8	934.7	929.8	8.61	–	–	–
x1 = 0.441	–	–	–	–	–	7.03	5.79	5.16
x1 = 0.5591	981.9	977.8	971.9	967.1	11.34	–	–	–
x1 = 0.5609	–	–	–	–	–	9.25	7.44	6.62
x1 = 0.6498	–	–	–	–	–	11.31	8.98	7.93
x1 = 0.6501	1009.7	1004.9	1000.1	995.4	13.86	–	–	–
x1 = 0.7398	–	–	–	–	–	13.64	10.74	9.42
x1 = 0.7399	1036.7	1032.3	1027.6	1023.1	16.72	–	–	–
x1 = 0.8499	1069.2	1065.1	1060.9	1056.8	20.75	–	–	–
x1 = 0.8501	–	–	–	–	–	16.88	13.24	11.5
x1 = 0.9399	1095.3	1091.7	1087.9	1084.2	24.46	–	–	–
x1 = 0.9405	–	–	–	–	–	19.8	15.56	13.42
x1 = 1	1112.4	1109.1	1105.6	1102.3	27.15	21.87	17.26	14.81

OCCOCCO [diethylene glycol] + CCCC(C)O
Conditions	mass density, 298.15 K [kg/m3]	mass density, 303.15 K [kg/m3]	mass density, 308.15 K [kg/m3]	mass density, 313.15 K [kg/m3]	viscosity, 298.15 K [mPa·s]	viscosity, 303.15 K [mPa·s]	viscosity, 308.15 K [mPa·s]	viscosity, 313.15 K [mPa·s]
x1 = 0.0811	827.8	823.5	818.9	814.6	3.85	3.17	2.84	2.47
x1 = 0.1598	849.9	845.5	840.8	836.5	4.44	3.55	3.29	2.93
x1 = 0.2399	872.9	868.4	863.5	859.2	5.12	4.05	3.79	3.44
x1 = 0.3501	905.1	900.6	895.7	891.3	6.37	5.03	4.58	4.26
x1 = 0.4398	931.9	927.5	922.6	918.2	7.79	6.17	5.42	5.08
x1 = 0.5599	968.7	964.2	959.5	955.2	10.37	8.3	6.9	6.46
x1 = 0.6501	997.1	992.8	988.1	983.9	12.9	10.35	8.33	7.74
x1 = 0.7399	1025.8	1021.7	1017.4	1013.1	15.92	12.81	10.08	9.22
x1 = 0.8499	1061.8	1058.1	1053.9	1050	20.26	16.33	12.72	11.36
x1 = 0.9399	1091.9	1088.3	1084.7	1081.1	24.28	19.56	15.31	13.35
x1 = 1	1112.4	1109.1	1105.6	1102.3	27.14	21.87	17.26	14.81

OCCOCCO [diethylene glycol] + CCCCC(C)O
x1 = 1
Conditions	mass density [kg/m3]	viscosity [mPa·s]
298.15 K	1112.4	27.15
303.15 K	1109.1	21.87
308.15 K	1105.6	17.26
313.15 K	1102.3	14.81

OCCOCCO [diethylene glycol] + CCCCCC(C)O
x1 = 1
Conditions	mass density [kg/m3]	viscosity [mPa·s]
298.15 K	1112.4	27.14
303.15 K	1109.1	21.87
308.15 K	1105.6	17.26
313.15 K	1102.3	14.81

CCCC(C)O (configuration not stated) [pentan-2-ol] + OCCOCCO
x2 = 0
Conditions	mass density [kg/m3]	viscosity [mPa·s]
298.15 K	805.4	3.2
303.15 K	801.2	2.8
308.15 K	796.6	2.33
313.15 K	792.5	1.99
